Assays:
purified PSMA = molecular target: T1, purified PSMA (Homo sapiens, UniProt Q04609); assay: PMSA Inhibition Assay (HPLC, PAB-Glu-γ-Glu substrate); format: biochemical; settings: for IC50: read-out: IC50 against PSMA; for inhibitory potency / affinity for PSMA (in words): purified PSMA from LNCaP cells
T1 construct: against purified PSMA from LNCaP cells by our published method; endogenous in cells; host or cells: LNCaP cells
Procedure: Adapted from, Maung, J.; Mallari, J. P.; Girtsman, T. A.; Wu, L. Y.; Rowley, J. A.; Santiago, N. M.; Brunelle, A.; Berkman, C. E. Probing for a Hydrophobic a Binding Register in Prostate-Specific Membrane Antigen with Phenylalkylphosphonamidates. […] Med. Chem. 2004, 12, 4969.
Working solutions of the substrate (N-[4-(phenylazo)benzoyl]-glutamyl-g-glutamic acid, PAB-Glu-γ-Glu) and all inhibitors were made in TRIS buffer (50 mM, pH 7.4). Working solutions of purified PSMA were appropriately diluted in TRIS buffer (50 mM, pH 7.4) to provide from 15% to 20% conversion of substrate to product in the absence of inhibitor. A typical incubation mixture (final volume 250 μL) was prepared by the addition of either 25 μL of an inhibitor solution or 25 μL TRIS buffer (50 mM, pH 7.4) to 175 μL TRIS buffer (50 mM, pH 7.4) in a test tube. A volume of the 25 μL PAB-Glu-γ-Glu (100 μM) was added to the above solution. The enzymatic reaction was initiated by the addition of 25 μL of the PSMA working solution. In all cases, the final concentration of PAB-Glu-γ-Glu was 10 μM while the enzyme was incubated with five serially-diluted inhibitor concentrations to provide a range of inhibition from 10% to 90% inhibition. The reaction was allowed to proceed for 15 min with constant shaking at 37° C. and was terminated by the addition of 25 μL methanolic TFA (2% trifluoroacetic acid by volume in methanol) followed by vortexing. The quenched incubation mixture was quickly buffered by the addition of 25 μL K2HPO4 (0.1 M), vortexed, and centrifuged (10 min at 7000 g). An 85 μL aliquot of the resulting supernatant was subsequently quantified by HPLC. IC50 values were calculated using KaleidaGraph 3.6 (Synergy Software).
PABGγG and its hydrolytic product (PABG) were separated and quantified using an analytical reversed-phase HPLC column (Lichrosphere C18 5 μm, 150×4.6 mm; Phenomenex, Torrence, Calif.) with a mobile phase consisting of ACN/potassium phosphate [25 mM, pH 2.0 (adjusted with H3PO4)] at a respective volume ratio of 40:60.

LNCaP cells = assay: Fluorescence/confocal microscopy labeling of PSMA-expressing cells; format: cell-based; settings: PSMA-expressing prostate cancer cells; fluorescence microscopy
Procedure: (§1) These compounds have been subsequently derivatized with amine-reactive fluorescent dyes (FIG. 9) to specifically label PSMA-expressing prostate cancer cells. […] Confocal microscopy was conducted on both LNCaP and PC3 prostate cancer cells after treatment with L6-V1-21 and propidium iodide.
(§2) While propidium iodide stained the nuclei of both cell lines, only the surface of the PSMA-expressing LNCaP 6 cells were fluorescently labeled with L6-V1-21. The intensely labeled sites on these LNCaP cells are hypothesized to be locations in which PSMA has aggregated.
(§3) To confirm that LW-54-F5EX was specific for PSMA-expressing cells, both LNCaP and PC3 cells were treated with this compound. While DAPI (4′,6-diamidino-2-phenylindole) stained nuclear DNA in both cell lines, only LNCaP cells were fluorescently labeled with LW-54-F5EX.
(§4) In that experiment, both LNCaP and PC3 cells were treated with LW-54-5FAMX. While DAPI (4′,6-diamidino-2-phenylindole) stained nuclear DNA in both cell lines, only LNCaP cells were fluorescently labeled with LW-54-5FAMX.

PC3 cells = assay: Fluorescence/confocal microscopy labeling of cells that do not express PSMA (negative control); format: cell-based; settings: fluorescence microscopy
Procedure: as §1, §2, §3, §4

PSMA [1] = molecular target: T2, PSMA (Homo sapiens, UniProt Q04609); assay: Time-dependence and reversibility of PSMA inhibition (100-fold dilution of inhibited enzyme); format: biochemical; settings: for reversibility of PSMA inhibition: recovery of PSMA activity after 100-fold dilution of inhibited enzyme
PSMA [2] = molecular target: T2, PSMA; assay: Inhibitor induced PSMA homodimer formation (Western blots); format: biochemical; settings: treatment of PSMA with inhibitor
From the text: As shown in the representative example in FIG. 6, covalent PSMA dimer formation mediated by T33 is both concentration dependent and time-dependent. […] Although we have not determined the mechanism of inhibition for T33, L36 and MP1D, it is clear that these agents represent a unique class of inhibitors of PSMA that may be used as covalent delivery vehicles specific for PSMA-expressing cancer cells. Based upon a cursory literature review, this is the first design and preparation of irreversible covalent modifiers of PSMA.

MMP-2 = molecular target: T3, MMP-2 (Homo sapiens, UniProt P08253); assay: MMP-2 inhibition; format: biochemical; settings: concentrations up to 10 μM
T3 sequence (P08253 110-660): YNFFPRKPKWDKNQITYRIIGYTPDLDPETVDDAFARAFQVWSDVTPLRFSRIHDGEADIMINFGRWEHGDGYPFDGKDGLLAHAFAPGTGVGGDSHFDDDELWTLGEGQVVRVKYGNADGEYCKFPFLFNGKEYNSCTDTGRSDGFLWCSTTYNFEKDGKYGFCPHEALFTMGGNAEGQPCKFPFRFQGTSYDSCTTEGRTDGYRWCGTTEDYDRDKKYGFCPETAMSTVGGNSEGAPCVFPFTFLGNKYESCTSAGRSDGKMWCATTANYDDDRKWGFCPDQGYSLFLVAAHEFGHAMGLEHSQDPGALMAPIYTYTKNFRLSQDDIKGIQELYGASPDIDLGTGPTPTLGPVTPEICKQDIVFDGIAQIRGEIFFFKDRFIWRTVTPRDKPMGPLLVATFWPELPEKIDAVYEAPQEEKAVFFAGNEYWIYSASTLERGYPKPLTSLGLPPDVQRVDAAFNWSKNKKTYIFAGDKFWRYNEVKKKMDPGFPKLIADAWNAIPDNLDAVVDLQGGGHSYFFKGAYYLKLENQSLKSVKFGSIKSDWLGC

[3] = molecular target: matrix metalloproteinase-9 (MMP-9) (Homo sapiens, UniProt P14780); assay: MMP-9 inhibition (specificity study); format: biochemical; settings: preliminary study; read-out: Ki against MMP-9
Procedure: To determine that the design of the phosphoramidate inhibitors of the invention is specific to PSMA, a preliminary study was conducted with representative compounds from the T33 analog library (FIG. 1) with matrix metalloproteinase-9 (MMP-9). The MMP enzymes are zinc-dependent endopeptidases involved in the degradation of extracellular matrices.

T1 sequence (Q04609 whole entry): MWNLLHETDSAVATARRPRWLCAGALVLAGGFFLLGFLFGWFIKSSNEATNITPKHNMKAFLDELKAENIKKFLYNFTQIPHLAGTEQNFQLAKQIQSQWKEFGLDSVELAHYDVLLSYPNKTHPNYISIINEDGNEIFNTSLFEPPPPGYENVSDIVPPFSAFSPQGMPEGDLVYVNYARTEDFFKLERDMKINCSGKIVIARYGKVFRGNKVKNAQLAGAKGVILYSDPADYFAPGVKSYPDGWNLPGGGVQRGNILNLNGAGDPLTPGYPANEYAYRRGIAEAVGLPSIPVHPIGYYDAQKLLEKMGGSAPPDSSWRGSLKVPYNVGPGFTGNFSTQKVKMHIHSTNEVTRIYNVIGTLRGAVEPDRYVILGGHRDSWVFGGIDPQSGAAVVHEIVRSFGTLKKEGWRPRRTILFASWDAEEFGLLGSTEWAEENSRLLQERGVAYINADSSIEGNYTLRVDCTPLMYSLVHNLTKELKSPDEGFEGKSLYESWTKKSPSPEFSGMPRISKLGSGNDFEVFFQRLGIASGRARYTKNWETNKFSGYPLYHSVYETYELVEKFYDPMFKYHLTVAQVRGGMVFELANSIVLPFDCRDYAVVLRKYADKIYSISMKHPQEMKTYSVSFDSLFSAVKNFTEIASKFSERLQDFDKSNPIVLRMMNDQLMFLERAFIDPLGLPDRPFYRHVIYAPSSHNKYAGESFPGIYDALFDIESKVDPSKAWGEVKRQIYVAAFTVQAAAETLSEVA
T2 sequence (Q04609 whole entry): as above
Sequence of matrix metalloproteinase-9 (MMP-9) (P14780 94-707, species assumed): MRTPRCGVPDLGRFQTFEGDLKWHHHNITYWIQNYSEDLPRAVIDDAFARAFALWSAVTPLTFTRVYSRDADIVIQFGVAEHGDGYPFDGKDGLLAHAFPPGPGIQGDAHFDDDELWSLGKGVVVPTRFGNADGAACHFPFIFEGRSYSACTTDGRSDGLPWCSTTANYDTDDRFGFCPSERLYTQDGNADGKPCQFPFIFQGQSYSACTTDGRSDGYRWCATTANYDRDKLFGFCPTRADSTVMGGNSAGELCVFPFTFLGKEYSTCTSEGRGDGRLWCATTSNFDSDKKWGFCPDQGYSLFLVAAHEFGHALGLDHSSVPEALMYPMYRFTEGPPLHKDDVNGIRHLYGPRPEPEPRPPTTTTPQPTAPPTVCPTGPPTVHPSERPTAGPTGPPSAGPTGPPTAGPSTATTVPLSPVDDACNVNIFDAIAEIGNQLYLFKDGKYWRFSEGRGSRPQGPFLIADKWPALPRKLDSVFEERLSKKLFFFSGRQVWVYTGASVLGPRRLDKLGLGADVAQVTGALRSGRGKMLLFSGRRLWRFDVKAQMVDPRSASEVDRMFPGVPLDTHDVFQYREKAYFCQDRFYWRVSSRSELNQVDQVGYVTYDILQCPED

O=C1C=CC2C(=C1)Oc1cc(O)ccc1C2c1ccc(NC(=S)N[C@@H](COP(=O)(O)N[C@@H](CCC(=O)O)C(=O)O)C(=O)O)cc1C(=O)O (stereo partly drawn) [Compound L6-V1-21, N-[{(2S)-2-carboxy-2-[({[3-carboxy-4-(6-hydroxy-3-oxo-9,9a-dihydro-3H-xanthen-9-yl)phenyl]amino}carbonothioyl)amino]ethoxy} (hydroxy)phosphoryl]-L-glutamic acid]
IC50 (purified PSMA): 0.085 µM | fluorescent labeling of LNCaP cells (LNCaP cells): extensive cell-surface labeling | fluorescent labeling of PC3 cells (PC3 cells): no green fluorescent labeling

CN(C(=O)c1ccccc1)[C@@H](COP(=O)(O)N[C@@H](CCC(=O)O)C(=O)O)C(=O)O [Compound L36, N-[{(2S)-2-[benzoyl(methyl)amino]-2-carboxyethoxy} (hydroxy)phosphoryl]-L-glutamic acid]
inhibitory potency / affinity for PSMA (in words) (purified PSMA): superior inhibitory potency | reversibility of PSMA inhibition (PSMA [1]): irreversible | covalent PSMA homodimer formation (PSMA [2]): formation of covalent PSMA homodimers

O=C(O)CC[C@H](NP(=O)(O)OC[C@H](NC(=O)c1ccccc1)C(=O)O)C(=O)O [Compound T33, N-{[(2S)-2-(benzoylamino) -2-carboxyethoxy](hydroxy)phosphoryl}-L-glutamic acid]
inhibitory potency / affinity for PSMA (in words) (purified PSMA): superior inhibitory potency | IC50 (purified PSMA): < 0.05 µM | time-dependence of PSMA inhibition (PSMA [1]): time-dependent PSMA inhibition | reversibility of PSMA inhibition (PSMA [1]): irreversible | covalent PSMA homodimer formation (PSMA [2]): formation of covalent PSMA homodimers | inhibition of MMP-2 (MMP-2): no inhibition

NCc1ccc(C(=O)N[C@@H](COP(=O)(O)N[C@@H](CCC(=O)O)C(=O)O)C(=O)O)cc1 [LW-39, N-{[(2S)-2-{[4-(aminomethyl)benzoyl]amino}-2-carboxyethoxy](hydroxy)phosphoryl}-L-glutamic acid]
reversibility of PSMA inhibition (PSMA [1]): irreversible inhibitors

O=C1C=CC2C(=C1)Oc1cc(O)ccc1C2c1ccc(NC(=O)CSCCC(=O)N[C@@H](CCC(=O)N[C@@H](COP(=O)(O)N[C@@H](CCC(=O)O)C(=O)O)C(=O)O)C(=O)O)cc1C(=O)O (stereo partly drawn) [LW-54-F5EX, N-{3-[(2-{[3-carboxy-4-(6-hydroxy-3-oxo-9,9a-di hydro-3H-xanthen-9-yl)phenyl]amino}-2-oxoethyl)thio]propanoyl}-L-γ-glutamyl -O-[{[(1S)-1,3-dicarboxypropyl]amino}(hydroxy)phosphoryl]-L-serine]
fluorescent labeling of LNCaP cells (LNCaP cells): extensive cell-surface labeling | fluorescent labeling of PC3 cells (PC3 cells): no green fluorescent labeling

O=C(O)CC[C@H](NP(=O)(O)OCCCCc1ccccc1)C(=O)O [MP1D, N-[hydroxy(4-phenylbutoxy)phosphoryl]-L-glutamic acid]
inhibitory potency / affinity for PSMA (in words) (purified PSMA): considerable affinity is maintained | reversibility of PSMA inhibition (PSMA [1]): irreversible inhibition

O=C(O)CC[C@H](NP(=O)(O)OCC(CCc1ccccc1)C(=O)O)C(=O)O (stereo partly drawn) [MP1E, N-[(2-carboxy-4-phenylbutoxy)(hydroxy)phosphoryl] -L-glutamic acid]
reversibility of PSMA inhibition (PSMA [1]): irreversible

O=C(O)CC[C@H](NP(=O)(O)OCc1ccc(-c2ccccc2)cc1)C(=O)O [NC-2-29, N-[(biphenyl-4-ylmethoxy) (hydroxy)phosphoryl]-L-glutamic acid]
Ki [3]: 5000 µM

Source: patent publication US7696185B2, “Peptidomimetic inhibitors of PSMA, compounds comprising them, and methods of use” (Cancer Targered Technology LLC, priority 2006, dated 2010)
